In ChEMBL document CHEMBL1156714, “Microwave induced synthesis of novel 8,9-dihydro-7H-pyrimido[4,5-b][1,4]diazepines as potential antitumor agents” (2008):
Calls of active or inactive are those of the source. The calls are words filed in the database; no cut-off is given here.

Columns and labels:
[1] = Growth inhibition of human HL60(TB) cells after 48 hrs by SRB assay; type: functional, HL-60(TB)
NCI-60 = assay: Growth inhibition of human NCI-60 cells at 1.0 uM; type: functional, cell-based
SR = assay: Growth inhibition of human SR cells after 48 hrs by SRB assay; type: functional
RPMI-8226 = assay: Growth inhibition of human RPMI8226 cells after 48 hrs by SRB assay; type: functional; conditions: RPMI-8226, 48 h; for CC50: read-out: LC50 (the source's name)
Hs-578T = assay: Growth inhibition of human HS578T cells after 48 hrs by SRB assay; type: functional; conditions: for CC50: read-out: LC50 (the source's name)
IGROV-1 = assay: Growth inhibition of human IGROV1 cells after 48 hrs by SRB assay; type: functional; conditions: IGROV-1, 48 h; for CC50: read-out: LC50 (the source's name)
HCT-15 = assay: Growth inhibition of human HCT15 cells after 48 hrs by SRB assay; type: functional; conditions: HCT-15, 48 h; for CC50: read-out: LC50 (the source's name)
NCI-H522 = assay: Growth inhibition of human NCI-H522 cells after 48 hrs by SRB assay; type: functional; conditions: NCI-H522, 48 h; for CC50: read-out: LC50 (the source's name)
UO-31 = assay: Growth inhibition of human UO31 cells after 48 hrs by SRB assay; type: functional; conditions: UO-31, 48 h; for CC50: read-out: LC50 (the source's name)
RXF 393 [2] = assay: Growth inhibition of human RXF393 cells after 48 hrs by SRB assay; type: functional; conditions: RXF 393, 48 h
HCT-116 = assay: Growth inhibition of human HCT116 cells after 48 hrs by SRB assay; type: functional; conditions: HCT-116, 48 h; for CC50: read-out: LC50 (the source's name)
BT-549 = assay: Growth inhibition of human BT549 cells after 48 hrs by SRB assay; type: functional; conditions: BT-549, 48 h
U-251 = assay: Growth inhibition of human U251 cells after 48 hrs by SRB assay; type: functional; conditions: U-251, 48 h
K562 = assay: Growth inhibition of human K562 cells after 48 hrs by SRB assay; type: functional; conditions: K562, 48 h
SW-620 = assay: Growth inhibition of human SW620 cells after 48 hrs by SRB assay; type: functional; conditions: SW-620, 48 h
RXF 393 [3] = assay: Growth inhibition of human […] cells after 48 hrs by SRB assay; type: functional; conditions: RXF 393, 48 h
[4] = Growth inhibition of human OVACR4 cells after 48 hrs by SRB assay; type: functional
NCI-H322M = assay: Growth inhibition of human NCI-H322M cells after 48 hrs by SRB assay; type: functional
MOLT-4 = assay: Growth inhibition of human MOLT4 cells after 48 hrs by SRB assay; type: functional; conditions: MOLT-4, 48 h
DU-145 = assay: Growth inhibition of human DU145 cells after 48 hrs by SRB assay; type: functional; conditions: DU-145, 48 h
COLO 205 = assay: Growth inhibition of human COLO205 cells after 48 hrs by SRB assay; type: functional; conditions: COLO 205, 48 h
NCI/ADR-RES = assay: Growth inhibition of human NCI/ADR-RES cells after 48 hrs by SRB assay; type: functional
SNB-75 = assay: Growth inhibition of human SNB75 cells after 48 hrs by SRB assay; type: functional; conditions: SNB-75, 48 h
HOP-62 = assay: Growth inhibition of human HOP62 cells after 48 hrs by SRB assay; type: functional; conditions: HOP-62, 48 h
[5] = Growth inhibition of human OVACR5 cells after 48 hrs by SRB assay; type: functional
PC-3 = assay: Growth inhibition of human PC3 cells after 48 hrs by SRB assay; type: functional; conditions: PC-3, 48 h
TK-10 = assay: Growth inhibition of human TK10 cells after 48 hrs by SRB assay; type: functional; conditions: TK-10, 48 h
[6] = Growth inhibition of human […] cells after 48 hrs by SRB assay; type: functional
SF-295 = assay: Growth inhibition of human SF295 cells after 48 hrs by SRB assay; type: functional; conditions: SF-295, 48 h
HCC 2998 = assay: Growth inhibition of human HCC2998 cells after 48 hrs by SRB assay; type: functional; conditions: HCC 2998, 48 h
MDA-MB-231 = assay: Growth inhibition of human MDA-MB-231 cells after 48 hrs by SRB assay; type: functional; conditions: MDA-MB-231, 48 h
LOX IMVI = assay: Growth inhibition of human LOX IMVI cells after 48 hrs by SRB assay; type: functional
ACHN = assay: Growth inhibition of human ACHN cells after 48 hrs by SRB assay; type: functional
A549 = assay: Growth inhibition of human A549 cells after 48 hrs by SRB assay; type: functional; conditions: A549, 48 h
MCF7 = assay: Growth inhibition of human MCF7 cells after 48 hrs by SRB assay; type: functional; conditions: MCF7, 48 h
KM12 = assay: Growth inhibition of human KM12 cells after 48 hrs by SRB assay; type: functional; conditions: KM12, 48 h
A498 = assay: Growth inhibition of human A498 cells after 48 hrs by SRB assay; type: functional; conditions: A498, 48 h
[7] = Growth inhibition of human OVACR3 cells after 48 hrs by SRB assay; type: functional
SF-268 = assay: Growth inhibition of human SF268 cells after 48 hrs by SRB assay; type: functional; conditions: SF-268, 48 h
HT-29 = assay: Growth inhibition of human HT29 cells after 48 hrs by SRB assay; type: functional; conditions: HT-29, 48 h
MDA-MB-468 = assay: Growth inhibition of human MDA-MB-468 cells after 48 hrs by SRB assay; type: functional; conditions: MDA-MB-468, 48 h
[8] = read-out: LC50 (the source's name)

## Nc1ncnc2c1N=C(c1ccc3c(c1)OCO3)CC(c1ccc([N+](=O)[O-])cc1)N2 (racemic)
[1]
  LC100: >100 µM
[1]; Homo sapiens, HL-60, 48 h
  GI50: 13.1 µM
NCI-60
  Activity: Active
SR
  GI50: 2.37 µM
  LC50 (concentration killing 50% of cells): > 100 µM
RPMI-8226
  GI50: 0.19 µM
  CC50: > 100 µM
Hs-578T
  GI50: 9.18 µM
  CC50: > 100 µM
IGROV-1
  GI50: 0.068 µM
  CC50: 25.5 µM
HCT-15
  GI50: 9.55 µM
  CC50: > 100 µM
NCI-H522
  GI50: 6.78 µM
  CC50: > 100 µM
UO-31
  GI50: 18.1 µM
  CC50: > 100 µM
RXF 393 [2]
  GI50: 7.19 µM
RXF 393 [2]; [8]
  CC50: > 100 µM
HCT-116
  GI50: 18.2 µM
  CC50: > 100 µM
BT-549
  GI50: 1.68 µM
BT-549; [8]
  CC50: > 100 µM

## COc1ccc(C2=Nc3c(N)ncnc3NC(c3ccc4c(c3)OCO4)C2)cc1 (racemic)
NCI-60
  Activity: inactive

## COc1ccc(C2CC(c3ccc4c(c3)OCO4)=Nc3c(N)ncnc3N2)cc1 (racemic)
NCI-60
  Activity: inactive

## Nc1ncnc2c1N=C(c1ccc(Cl)cc1)CC(c1ccc3c(c1)OCO3)N2 (racemic)
NCI-60
  Activity: inactive

## Nc1ncnc2c1N=C(c1ccc3c(c1)OCO3)CC(c1ccc(Cl)cc1)N2 (racemic)
[1]; Homo sapiens, HL-60, 48 h
  GI50: 5.37 µM
[1]; Homo sapiens, HL-60, 48 h, read-out: LC50 (the source's name)
  CC50: > 100 µM
NCI-60
  Activity: Active
U-251
  GI50: 6.19 µM
U-251; [8]
  CC50: 78.9 µM
K562
  GI50: 4.27 µM
  LC50: > 100 µM
SW-620
  GI50: 4.91 µM
SW-620; [8]
  CC50: > 100 µM
RXF 393 [3]
  GI50: 2.51 µM
RXF 393 [3]; [8]
  CC50: 59.3 µM
RPMI-8226
  GI50: 1.5 µM
  CC50: > 100 µM
[4]
  GI50: 18.3 µM
  LC50: > 100 µM
NCI-H322M
  GI50: 16.9 µM
NCI-H322M; [8]
  CC50: > 100 µM
MOLT-4
  GI50: 5.85 µM
MOLT-4; [8]
  CC50: > 100 µM
DU-145
  GI50: 16.8 µM
DU-145; [8]
  CC50: 65.9 µM
COLO 205
  GI50: 15 µM
COLO 205; [8]
  CC50: > 100 µM
NCI/ADR-RES
  GI50: 5.35 µM
NCI/ADR-RES; [8]
  CC50: > 100 µM
Hs-578T
  GI50: 1.07 µM
  CC50: > 100 µM
IGROV-1
  GI50: 0.35 µM
  CC50: 42.8 µM
SNB-75
  GI50: 5.22 µM
SNB-75; [8]
  CC50: > 100 µM
HOP-62
  GI50: 16.6 µM
HOP-62; [8]
  CC50: > 100 µM
HCT-15
  GI50: 3.14 µM
  CC50: 55.2 µM
[5]
  GI50: 18.3 µM
[5]; [8]
  CC50: > 100 µM
NCI-H522
  GI50: 2.37 µM
  CC50: > 100 µM
PC-3
  GI50: 9.06 µM
PC-3; [8]
  CC50: 50.8 µM
TK-10
  GI50: 8.23 µM
TK-10; [8]
  CC50: > 100 µM
[6]
  GI50: 4.66 µM
[6]; [8]
  CC50: > 100 µM
UO-31
  GI50: 7.48 µM
  CC50: > 100 µM
SF-295
  GI50: 14.7 µM
  LC50: > 100 µM
HCC 2998
  GI50: 5.88 µM
  LC50 (concentration killing 50% of cells): > 100 µM
MDA-MB-231
  GI50: 2.7 µM
MDA-MB-231; [8]
  CC50: 55.6 µM
LOX IMVI
  GI50: 10.1 µM
LOX IMVI; [8]
  CC50: > 100 µM
ACHN
  GI50: 8.25 µM
  LC50 (lethal concentration 50%): > 100 µM
HCT-116
  GI50: 10.7 µM
  CC50: 47.5 µM
A549
  GI50: 11.6 µM
  LC50: 78.3 µM
MCF7
  GI50: 3.61 µM
  LC50: > 100 µM
KM12
  GI50: 2.03 µM
KM12; [8]
  CC50: > 100 µM
A498
  GI50: 5.94 µM
  LC50: > 100 µM
[7]
  GI50: 3.71 µM
  LC50: 83 µM
SF-268
  GI50: 8.52 µM
  LC50 (50% lethal concentration): > 100 µM
HT-29
  GI50: 3.81 µM
HT-29; [8]
  CC50: > 100 µM
MDA-MB-468
  GI50: 10.1 µM
MDA-MB-468; [8]
  CC50: > 100 µM

## Nc1ncnc2c1N=C(c1ccc([N+](=O)[O-])cc1)CC(c1ccc3c(c1)OCO3)N2 (racemic)
NCI-60
  Activity: inactive
